From PubChem BioAssay AID248 (DTP/NCI, 2004)
Several values for one entry are separate records, joined by “and”; a condition that tells them apart may be missing. Identical values can stand only once. Inconclusive results and toxic doses are left out. Cut-off read from the data, not from the text of the source: active = T/C of 150% or more; inactive = T/C below 125%.

Test system: L1210 leukemia ip in BDF1 mice, survival T/C
Test: NCI In Vivo Anticancer Drug Screen. Data for tumor model L1210 Leukemia (intraperitoneal) in B6D2F1 (BDF1) mice
Details: endpoint: mean survival time, higher = longer survival
Procedure, shortened: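 In this screen, tumor-bearing mice given compound are compared to those given vehicle, and their survival values are reported as a treated-to-control quotient.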

[1] = dose: 100.0 mg/kg/injection, schedule: Q01DX009 (ip), vehicle: saline with Tween-80
[2] = dose: 200.0 mg/kg/injection, schedule: Q01DX009 (ip), vehicle: saline with Tween-80
[3] = dose: 400.0 mg/kg/injection, schedule: Q01DX009 (ip), vehicle: saline with Tween-80
[4] = dose: 100.0 mg/kg/injection, schedule: Q01DX001 (ip), vehicle: carboxymethylcellulose (CMC)
[5] = dose: 100.0 mg/kg/injection, schedule: Q04DX003 (ip), vehicle: Klucel (hydroxypropylcellulose) (HPC)
[6] = dose: 200.0 mg/kg/injection, schedule: Q01DX001 (ip), vehicle: carboxymethylcellulose (CMC)
[7] = dose: 100.0 mg/kg/injection, schedule: Q01DX001 (ip), vehicle: Klucel (hydroxypropylcellulose) (HPC)
[8] = dose: 200.0 mg/kg/injection, schedule: Q01DX001 (ip), vehicle: Klucel (hydroxypropylcellulose) (HPC)
[9] = dose: 400.0 mg/kg/injection, schedule: Q01DX001 (ip), vehicle: Klucel (hydroxypropylcellulose) (HPC)
[10] = dose: 200.0 mg/kg/injection, schedule: Q04DX003 (ip), vehicle: Klucel (hydroxypropylcellulose) (HPC)
[11] = dose: 400.0 mg/kg/injection, schedule: Q04DX003 (ip), vehicle: Klucel (hydroxypropylcellulose) (HPC)
[12] = dose: 100.0 mg/kg/injection, schedule: Q01DX009 (ip), vehicle: saline
[13] = dose: 100.0 mg/kg/injection, schedule: Q04DX003 (ip), vehicle: saline with Tween-80
[14] = dose: 200.0 mg/kg/injection, schedule: Q04DX003 (ip), vehicle: saline with Tween-80

Measured: T/C

Cn1cc(/C=C\C(=O)O)c2nccnc21
inactive: dose: 37.5 mg/kg/injection, schedule: Q01DX009 (ip), vehicle: water 95 % of control | dose: 50.0 mg/kg/injection, schedule: Q01DX009 (ip), vehicle: water 100 % of control | dose: 75.0 mg/kg/injection, schedule: Q01DX009 (ip), vehicle: water 105 % of control | dose: 100.0 mg/kg/injection, schedule: Q01DX009 (ip), vehicle: water 89 % of control | dose: 100.0 mg/kg/injection, schedule: Q04DX003 (ip), vehicle: water 108 % of control | dose: 150.0 mg/kg/injection, schedule: Q01DX009 (ip), vehicle: water 89 % of control | dose: 200.0 mg/kg/injection, schedule: Q01DX009 (ip), vehicle: water 91 % of control | dose: 200.0 mg/kg/injection, schedule: Q04DX003 (ip), vehicle: water 106 % of control | dose: 300.0 mg/kg/injection, schedule: Q01DX009 (ip), vehicle: water 91 % of control

NC(=O)OCC(CO)(c1ccccc1)c1ccccc1
inactive: dose: 5.0 mg/kg/injection, schedule: Q01DX001 (ip), vehicle: saline 98 % of control | dose: 10.0 mg/kg/injection, schedule: Q01DX001 (ip), vehicle: saline 93 % of control | dose: 20.0 mg/kg/injection, schedule: Q01DX001 (ip), vehicle: saline 102 % of control | dose: 40.0 mg/kg/injection, schedule: Q01DX001 (ip), vehicle: saline 102 % of control | dose: 80.0 mg/kg/injection, schedule: Q01DX001 (ip), vehicle: saline 98 % of control

Cc1cc(=O)oc2cc(OC(=O)Nc3ccc(Cl)cc3C(F)(F)F)ccc12
inactive: [1] 97 % of control | [2] 97 % of control | [3] 92 % of control

Cc1nnnn1C1CCCCC1I (stereo not given)
inactive: dose: 10.0 mg/kg/injection, schedule: Q01DX001 (ip), vehicle: other 102 % of control | dose: 20.0 mg/kg/injection, schedule: Q01DX001 (ip), vehicle: other 88 % of control

O=C(O)c1cc(S(=O)(=O)Cl)ccc1Cl
inactive: dose: 50.0 mg/kg/injection, schedule: Q04DX003 (ip), vehicle: Klucel (hydroxypropylcellulose) (HPC) 105 % of control | [4] 95 % of control | [5] 92 % of control | [6] 104 % of control

CC(C)(CCCCC(C)(C)NC(=O)Nc1ccc(Cl)c(Cl)c1)NC(=O)Nc1ccc(Cl)c(Cl)c1
inactive: [4] 92 % of control | [6] 87 % of control

Cn1c(CC(O)(C(F)(F)F)C(F)(F)F)c(C(O)(C(F)(F)F)C(F)(F)F)c2ccccc21
inactive: dose: 5.0 mg/kg/injection, schedule: Q01DX009 (ip), vehicle: saline with Tween-80 100 % of control | dose: 10.0 mg/kg/injection, schedule: Q01DX009 (ip), vehicle: saline with Tween-80 94 % of control

COc1ccc(S(=O)(=O)NCCC#N)cc1NC(C)=O
inactive: [7] 95 % of control | dose: 100.0 mg/kg/injection, schedule: Q01DX009 (ip), vehicle: saline sonified 96 % of control | [8] 97 % of control | dose: 200.0 mg/kg/injection, schedule: Q01DX009 (ip), vehicle: saline sonified 96 % of control | [9] 97 % of control | dose: 400.0 mg/kg/injection, schedule: Q01DX009 (ip), vehicle: saline sonified 107 % of control

O=C1C=C(N2C3C4CCC(C4)C32)C(=O)C=C1c1ccccc1 (stereo not given)
inactive: dose: 50.0 mg/kg/injection, schedule: Q01DX001 (ip), vehicle: Klucel (hydroxypropylcellulose) (HPC) 96 % of control | [7] 97 % of control | [8] 94 % of control

O=C(O)Cc1ccc(N=Nc2c(O)c(C(=O)O)cc3ccccc23)cc1
inactive: dose: 100.0 mg/kg/injection, schedule: Q01DX009 (ip), vehicle: Klucel (hydroxypropylcellulose) (HPC) 96 % of control | [5] 93 % of control | dose: 200.0 mg/kg/injection, schedule: Q01DX009 (ip), vehicle: Klucel (hydroxypropylcellulose) (HPC) 105 % of control | [10] 100 % of control | dose: 400.0 mg/kg/injection, schedule: Q01DX009 (ip), vehicle: Klucel (hydroxypropylcellulose) (HPC) 100 % of control | [11] 103 % of control

COC(=O)c1cccc2cnccc12
inactive: [5] 107 % of control | [10] 110 % of control | [11] 96 % of control

c1ccc2cc3c(cc2c1)Cn1c-3nc2ccccc21
inactive: dose: 100.0 mg/kg/injection, schedule: Q01DX001 (ip), vehicle: saline 108 % of control | [12] 97 % of control | dose: 100.0 mg/kg/injection, schedule: Q01DX015 (ip), vehicle: saline 95 % of control | dose: 100.0 mg/kg/injection, schedule: Q04DX003 (ip), vehicle: saline 98 % of control | dose: 200.0 mg/kg/injection, schedule: Q01DX001 (ip), vehicle: saline 100 % of control | dose: 200.0 mg/kg/injection, schedule: Q01DX009 (ip), vehicle: saline 95 % of control | dose: 200.0 mg/kg/injection, schedule: Q01DX015 (ip), vehicle: saline 97 % of control | dose: 200.0 mg/kg/injection, schedule: Q04DX003 (ip), vehicle: saline 93 % of control | dose: 400.0 mg/kg/injection, schedule: Q01DX001 (ip), vehicle: saline 100 % of control | dose: 400.0 mg/kg/injection, schedule: Q01DX009 (ip), vehicle: saline 112 % of control | dose: 400.0 mg/kg/injection, schedule: Q04DX003 (ip), vehicle: saline 96 % of control

N=C1N=C(N)C(CCCOc2cc(Cl)ccc2Cl)(CCCOc2cc(Cl)ccc2Cl)C(N)=N1
inactive: [5] 94 % of control | [10] 106 % of control | [11] 87 % of control

OC1C2CC3C1C3C2O (stereo not given)
inactive: [1] 94 % of control | [2] 94 % of control | [3] 97 % of control

O=C(C=c1sc(=CC(=O)c2ccccc2)s1)c1ccccc1
inactive: [7] 97 % of control | [8] 97 % of control | [9] 97 % of control

O=C(Nc1ccccc1Cl)Nc1cc(Cl)ccc1Cl
inactive: dose: 100.0 mg/kg/injection, schedule: Q04DX002 (ip), vehicle: saline + alcohol 100 % of control | dose: 200.0 mg/kg/injection, schedule: Q04DX002 (ip), vehicle: saline + alcohol 100 % of control | dose: 400.0 mg/kg/injection, schedule: Q04DX002 (ip), vehicle: saline + alcohol 92 % of control

O=C(Oc1cccc(OC(=O)c2ccccc2)c1)c1ccccc1
inactive: [13] 100 % of control | [14] 91 % of control | dose: 400.0 mg/kg/injection, schedule: Q04DX003 (ip), vehicle: saline with Tween-80 88 % of control

CCN(CC)CC(=O)NCC(CCN1CCCC1)(c1cccc2ccccc12)C(C)C (stereo not given)
inactive: dose: 25.0 mg/kg/injection, schedule: Q01DX009 (ip), vehicle: saline 101 % of control | dose: 50.0 mg/kg/injection, schedule: Q01DX009 (ip), vehicle: saline 98 % of control | [12] 101 % of control

[Co]#[Sb]
inactive: dose: 75.0 mg/kg/injection, schedule: Q04DX003 (sc), vehicle: olive oil, sesame oil, peanut oil 96 % of control | dose: 150.0 mg/kg/injection, schedule: Q04DX003 (sc), vehicle: olive oil, sesame oil, peanut oil 95 % of control | dose: 300.0 mg/kg/injection, schedule: Q04DX003 (sc), vehicle: olive oil, sesame oil, peanut oil 105 % of control

Cc1ccc2cccc([N+](=O)[O-])c2n1
inactive: dose: 12.5 mg/kg/injection, schedule: Q01DX009 (ip), vehicle: saline with Tween-80 93 % of control | dose: 25.0 mg/kg/injection, schedule: Q01DX009 (ip), vehicle: saline with Tween-80 93 % of control | dose: 25.0 mg/kg/injection, schedule: Q04DX003 (ip), vehicle: saline with Tween-80 101 % of control | dose: 50.0 mg/kg/injection, schedule: Q01DX009 (ip), vehicle: saline with Tween-80 103 % of control | dose: 50.0 mg/kg/injection, schedule: Q04DX003 (ip), vehicle: saline with Tween-80 95 % of control | [13] 105 % of control and 106 % of control | [14] 106 % of control

CCOC(=O)/C(C)=N/O
inactive: dose: 100.0 mg/kg/injection, schedule: Q04DX002 (ip), vehicle: saline with Tween-80 96 % of control | dose: 200.0 mg/kg/injection, schedule: Q04DX002 (ip), vehicle: saline with Tween-80 116 % of control | dose: 400.0 mg/kg/injection, schedule: Q04DX002 (ip), vehicle: saline with Tween-80 104 % of control

C(=C\c1ccccc1)/Nc1ccccc1
inactive: [5] 97 % of control | [10] 96 % of control | [11] 92 % of control
